The values that follow come from patent publication US9796755B2, “Methods of treating depression and other related diseases” (Northwestern University, priority 2009, dated 2017).

The conditions of series [1]: literature (Bristow et al. 1996; Parsons et al. 1997); cited from earlier work.
The subject of another series is GluR1. The series is described as follows: Total and phosphoserine-845 GluR1 by Western blot in medial prefrontal cortex. It counts as in vivo, rat. Particulars: 24 hrs after GLYX-13 3 mg/kg IV or ketamine 10 mg/kg IV. From the text:
(§1) Total and Phosphoserine-9 glycogen synthase kinase 3β (GSK-3β) were quantified by ELISA according to the manufacturer's instructions (catalog numbers ADI-900-144 and ADI-900-123A, Assay Designs, USA). Total and phosphoserine-845 GluR1 were quantified by Western blot.
Background: A western blot detects proteins with antibodies after separation by electrophoresis.

The test system of series [2] is patients suffering with refractory depression. As to conditions: cited from earlier work.
The test system of series [3] is rats. The series is described as follows: Drug discrimination in rats trained to discriminate ketamine from saline. On the procedure:
Testing was conducted as described previously (Nicholson K L & Balster R L (2009) The discriminative stimulus effects of N-methyl-D-aspartate glycine-site ligands in NMDA antagonist-trained rats. Psychopharmacology (Berl) 203(2):441-451). Adult male Sprague Dawley rats were trained to discriminate ketamine (10 mg/kg IP) from saline. Animals were then tested following various doses of GLYX-13 administration (3-156 mg/kg SC) and the percent of ketamine lever responding and rates of responding were recorded.

The subject of series [4] is rats. The series is described as follows: Prepulse inhibition. It counts as in vivo, rat. Particulars: Sprague-Dawley rats; GLYX-13 10 mg/kg IV tested 15 min post injection; ketamine 10 mg/kg IP tested immediately. Here is the method: Animals were given intravenous injections of GLYX-13 (10 mg/kg) or saline via chronic indwelling femoral vein cannulae and tested 15 min post injection, or intraperitoneal ketamine (10 mg/kg) or saline vehicle (1 mL/kg IV or IP respectively) and tested immediately post injection for prepulse inhibition.

Series [5] concerns rats. The series is described as follows: Porsolt test (Forced Swim Test), systemic dosing. It counts as in vivo, rat. On the procedure: For the evaluation of the antidepressant actions of GLYX-13, the effect of GLYX-13 in the Porsolt test of depression was examined in rats. Porsolt testing is the most commonly used test for assessment of depression in animal model, Porsolt testing, also known as Forced Swim Test, is based on a behavioral trait that is sensitive to changes in affective state. During this test, the animal is placed in a tank (18 cm diameter×45 cm height) filled to 30 cm with 22-23° C. water. After placing the animal in the tank, the amount of time for which the rat is immobile when it stops struggling is measured. Porsolt test is based on the fact that antidepressants increase the latency to immobility and decrease the time for which the rat is immobile. […] The interpretation of the Porsolt test is that the antidepressants reinstate active coping mechanisms and decrease the passive immobility evoked by stress.
In order to evaluate the effectiveness of GLYX-13 as antidepressant, three month old FBNF1 rats were separated into two groups of 9 animals. The first group of rats was intravenously injected with 10 mg/kg GLYX-13 and the second group of animals was intravenously injected with PBS vehicle (1 ml/kg) in a blind manner via chronic subdural femoral vein access ports. Both groups of animals were injected 10 to 15 minutes before the start of testing.
For Porsolt testing, animals were given a 15 minute pre-test habituation in the tank to induce learned helplessness on day one. Following this, on the subsequent day, the animals were injected with GLYX-13 or vehicle 10-15 minutes before being placed into the tank for a 5 minute test session. After placing the animals in the tank, the amount of time for which each animal is immobile when it stops struggling (Mean Immobility Time) was measured. Decrease in Mean Immobility Time is a measure of the effectiveness of the antidepressant.
A second experiment was performed in the same manner as Example 1, except that 2-3 month Sprague-Dawley rats were used, and treated with either intravenous (1, 3, 10, 32 mg/kg), subcutaneous (1, 3, 10, 32, 56, 100 mg/kg) injections of GLYX-13 or saline vehicle (1 mg/ml) 15 (i,v.) or 20 (s.c.) min before the start of the final 5 min test session. Ketamine (10 mg/kg i.p.) was given 60 min befbre the start of testing (Garcia et al., (2008) Prog Neuropsychopharmacol Biol Psychiatry, 32, 140-144).
To determine whether the antidepressant effect of GLYX-13 was specific to the sequence of the GLXY-13 peptide, mean time (sec) spent floating in the Porsolt test was determined in groups of 12 three-month old Sprague Dawley rats administered with GLYX-13 (TPPT-NH2 (SEQ ID NO: 13); 3 mg/kg , i.v. tail vein), a scrambled peptide (PTPT-NH3(SEQ ID NO: 19); 3 mg/kg i.v. tail vein), or 0.9% saline vehicle (1 ml/kg, i.v. tail vein). Administration occurred 60 min before the 5 min testing session. Animals received a 15 min training swim session one day before dosing.
To evaluate whether the anti-depressive and anxiolytic effects of GLYX-13 would persist beyond a few hours, rats were tested in the Porsolt test and the Open Field test, described above. Groups of 10-11 three-month old Sprague-Dawley rats were pretreated with GLYX-13 (3 mg/kg i.v.), ketamine (10 mg/kg i.v.) or saline vehicle injection (1 mg/ml i.v. tail vein) 96 hrs before the start of testing. Animals received a single 15 min. training swim session one day before dosing. Animals were tested 96 hrs post dosing in the Porsolt test without any testing during the intervening period. Open field testing was conducted without pre-habituation 1 day after Porsolt testing (i.e. 120 hrs post dosing). Mean(±SEM) time (sec.) spent floating in the Porsolt test, time spent in the center compartment (sec.), and line crosses in the open field test were determined.
The Porsolt test adapted for use in rats was performed as above. […]

Series [6] relates to rats. The series is described as follows: Conditioned place preference. It counts as in vivo, rat. Particulars: GLYX-13 10 mg/kg IV; ketamine 10 mg/kg IV. Here is the method: Animals were trained with GLYX-13 (10 mg/kg, IV), ketamine (10 mg/kg, IV), or saline vehicle (1 mL/kg, IV) utilizing an unbiased two-chamber conditioned place preference apparatus.
For the next series, the system named is β-catenin. Description: Total β-catenin protein level in medial prefrontal cortex. It counts as in vivo, rat. Particulars: 24 hrs after GLYX-13 3 mg/kg IV or ketamine 10 mg/kg IV.
The test system of series [7] is glycogen synthase kinase 3β (GSK-3β). Description: Total and phosphoserine-9 GSK-3β by ELISA in medial prefrontal cortex. It counts as in vivo, rat. As to conditions: 24 hrs after GLYX-13 3 mg/kg IV or ketamine 10 mg/kg IV.
Description: as §1
(In general: An ELISA detects its analyte on a solid surface through an enzyme-linked reagent.)

Consider `O=c1[nH]c2cc(Cl)ccc2c(O)c1-c1cccc(Oc2ccccc2)c1` [L-701,324], for which the “anticonvulsant effects relative to ataxia (therapeutic index)” value in series [1] is “anticonvulsant effects at doses that produced ataxia”.
For `CNC1(c2ccccc2Cl)CCCCC1=O` (stereo not drawn) [ketamine, reference compound], the “Phosphoserine-845 GluR1/total GluR1 ratio” value with GluR1 is “increased”. For the same molecule, the “Hamilton Depression Rating Score” value in [2] was “significant reductions”. Besides, the “suppression of operant responding (rates of responding)” value is “suppress operant responding” in the series with rats [3] (IP, 30 mg/kg (higher dose)) and “suppress operant responding” in the series on rats [3] (SC, 10 mg/kg (higher dose)). For the same molecule, the “ketamine-like discriminative stimulus effects (ketamine-lever selection)” value with rats [3] (IP, 5.6-30 mg/kg) is “dose-dependent increases in ketamine-lever selection”; with rats [3] (SC, 1-10 mg/kg) it was “dose-dependent increases in ketamine-lever selection”. Also, in the series on rats [4], the “prepulse inhibition, an indicator of dissociative effects” value is “decreased prepulse inhibition”. Also, the dissociative side effects result in the series with rats [5] (10 mg/kg subcutaneous, testing 20 min post dosing) is listed as “severe dissociative side effects”. Also, in the series on rats [5] (Sprague Dawley rats, 10 mg/kg IP, 20-60 min post dosing), the “effect on floating times in the Porsolt test” value is recorded as “reduced floating times”. Also, in the series on rats [6], the “conditioned place preference, an indicator of abuse potential” value is listed as “induced conditioned place preference”. The “total β-catenin” value in the series on β-catenin is “reduced”. Besides, in series [7], the “phosphoserine-9 GSK-3β/total GSK-3β ratio” value is “reduced”.
Take `NS(=O)(=O)c1cccc2c1c([N+](=O)[O-])cc1nc(O)c(O)nc12` [NBQX, reference compound]: the “effect of NBQX pretreatment on the antidepressant-like effect of GLYX-13 (floating time)” value in the series on rats [5] (NBQX 10 mg/kg IP before GLYX-13 3 mg/kg IV, tested 1 hr post dosing) is “blocked the antidepressant-like effect of GLYX-13”.
In the case of `C[C@@H]([C@@H](O)c1ccc(O)cc1)N1CCC(O)(c2ccccc2)CC1` [CPC-101,606], the “Hamilton Depression Rating Score” value in series [2] is on record as “significant reductions”.
